Source: article PMC6385203, “Mutations in the palm domain disrupt modulation of acid-sensing ion channel 1a currents by neuropeptides” (Scientific Reports, 2019)
Peptide text beside a SMILES is read from it.

Molecular target: T1, WT ASIC1a (Homo sapiens, UniProt P78348)
T1 construct: expressed in transfected cells; host or cells: Xenopus laevis oocytes injected with cRNA
T1 sequence (P78348 1-528): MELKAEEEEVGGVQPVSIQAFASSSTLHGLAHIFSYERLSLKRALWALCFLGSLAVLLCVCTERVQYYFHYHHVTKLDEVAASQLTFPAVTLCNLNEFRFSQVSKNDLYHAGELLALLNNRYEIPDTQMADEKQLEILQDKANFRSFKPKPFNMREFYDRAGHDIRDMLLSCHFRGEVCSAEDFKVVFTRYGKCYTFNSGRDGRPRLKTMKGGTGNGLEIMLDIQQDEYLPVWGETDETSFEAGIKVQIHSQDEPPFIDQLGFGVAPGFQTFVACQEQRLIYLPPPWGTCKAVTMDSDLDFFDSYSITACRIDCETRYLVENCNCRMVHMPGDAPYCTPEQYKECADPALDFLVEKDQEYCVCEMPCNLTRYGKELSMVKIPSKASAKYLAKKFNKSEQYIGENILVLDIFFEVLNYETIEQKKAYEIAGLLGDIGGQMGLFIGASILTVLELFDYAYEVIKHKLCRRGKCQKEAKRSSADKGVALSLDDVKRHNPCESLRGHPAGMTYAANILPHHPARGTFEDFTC
Assay: Time course of appearance of Isust (association), WT
Assay type: cell-based
Details: pH 7.4, 50 μM FRRFa pre-applied for different times at pH7.4, n = 4, mean ± SEM, read-out: association rate constant kon
Description: ASIC1a function was measured by two-electrode voltage-clamp after recombinant expression in Xenopus oocytes. The channels were activated by a pH5 stimulation solution from a conditioning solution of pH7.4. […] We measured the rate of FRRFa unbinding, as the disappearance of the sustained current after a 50-s incubation with 50 μM FRRFa, as 0.025 ± 0.005 s^−1 (n = 8, Fig. 2b). […] To determine the kinetics of FRRFa association on ASIC1a, we pre-applied the peptide at a concentration of 50 μM for different time periods in the conditioning solution and measured the sustained current fraction.
Figure 2 FRRFa modulation of ASIC1a currents is only partially affected by acidic pocket mutations. (a) FRRFa concentration-response curve. Top, representative current traces. Bottom, Isust/Ipeak ratio induced by pH5 as a function of the FRRFa concentration (pre-applied during 45–50 s and present in pH5 solution), n = 7–11. (b) Time course of disappearance of the FRRFa-induced Isust. FRRFa at 50 μM was applied for 45 s, and current was measured once every minute during washout with FRRFa-free solution. Exponential fit shown as solid line (n = 4, error bars are smaller than the symbols). (c) Time course of appearance of Isust. Oocytes were exposed for various durations to 50 μM FRRFa in the pH7.4 conditioning solution, before activation of ASIC currents with pH5, including 50 μM FRRFa. […]

## N=C(N)NCCC[C@H](NC(=O)[C@H](CCCNC(=N)N)NC(=O)[C@@H](N)Cc1ccccc1)C(=O)N[C@@H](Cc1ccccc1)C(N)=O [FRRFa, Phe-Arg-Arg-Phe-amide] (H-FRRF-NH2)
  kon: 162 ± 84 M⁻¹ s⁻¹
